Test results taken from patent US6936619B2, “Quinazolinone compounds useful in therapy” (Pfizer, Inc., priority 2002, dated 2005).

Target: T1, α1L Receptor (Oryctolagus cuniculus, UniProt O02824)
T1 construct: A single rabbit aorta was cleaned of connective tissue, cut into rings; from tissue; host or cells: rabbit aorta rings
T1 sequence (O02824 1-466): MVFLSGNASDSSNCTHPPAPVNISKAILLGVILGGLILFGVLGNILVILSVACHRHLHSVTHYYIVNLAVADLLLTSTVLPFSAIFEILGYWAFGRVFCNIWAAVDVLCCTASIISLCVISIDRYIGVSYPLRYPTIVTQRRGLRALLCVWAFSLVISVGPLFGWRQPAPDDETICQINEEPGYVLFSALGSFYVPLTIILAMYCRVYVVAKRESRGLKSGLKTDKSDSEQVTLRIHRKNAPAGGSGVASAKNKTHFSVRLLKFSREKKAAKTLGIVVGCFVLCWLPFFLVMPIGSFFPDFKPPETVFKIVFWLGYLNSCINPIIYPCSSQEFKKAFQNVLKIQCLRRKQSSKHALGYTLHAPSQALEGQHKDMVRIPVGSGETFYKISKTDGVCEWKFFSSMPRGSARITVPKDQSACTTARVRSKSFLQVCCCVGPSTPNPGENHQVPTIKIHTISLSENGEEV
Assay: Contractile responses of rabbit aorta (methoxamine-induced), antagonist pA2
Details: rabbit aorta rings, methoxamine as agonist, 60 minutes with compound, Schild analysis; read-out: pA2 v α1L (converted)
Procedure: Contractile Responses of Rabbit Aorta (α1L Receptor)
A single rabbit aorta was cleaned of connective tissue, cut into rings ˜3 mm in length, then denuded of […] by rubbing very gently with a probe. The lengths of tissue are then mounted in the 5 mL organ baths, which contain the modified Krebs of the following composition (mM): NaCl (119), KCl (4.7), CaCl2 (2.5), KH2PO4 (1.2), MgSO4 (1.2), NaHCO3 (25), glucose (11), and gassed with 95% O2/5% CO2. The tissues are placed under ˜1.5 g tension, and are left to equilibrate for ˜60 minutes on a pump speed of ˜5 mL\minute, adjusting the tension to 1-1.5 g if necessary after 15 and 45 minutes. A 1M stock solution (1×10^−3M bath conc.) of methoxamine in water was made and 1:10 dilutions made using the same diluent. A sensitising dose of 120 mM KCl (bath concentration) was added to each bath. After the maximum response had been reached (usually about 6-8 minutes), the tissues are washed with Krebs solution for 60 minutes, pump speed at ˜2.97 mL/min. […]
The data was captured on ADA analysis in-vitro software, which expresses the readings as a % of the maximum response of the control curve, draws control and test compound dose response curves, and calculates a EC50 and then dose ratio (DR), the ratio between control and treatment curve EC50, for each treatment. […]

Kb: 100 pM
SMILES: COc1cc(C2CC2)c2c(=O)[nH]c(N3CCc4nc(CN5CCOCC5)ccc4C3)nc2c1 [Example 11, 5-Cyclopropyl-7-methoxy-2-(2-morpholin-4-ylmethyl-7,8-dihydro[1,6]-naphthyridin-6(5H)-yl)-4(3H)-quinazolinone]
